The text below walks through data of patent US5684039A, “Chroman-2-ylmethylamino derivatives” (American Home Products Corporation, priority 1996, dated 1997).

For one assay, the target named is T1, dopamine autoreceptor (Rattus norvegicus, UniProt P61169).
T1 construct: homogenized rat striatal brain tissue; from tissue; host or cells: rat striatal brain tissue, homogenized
As to the kind of experiment: 3H-quinpirole (Quin.) binding, affinity for the dopamine autoreceptor, homogenized rat striatal brain tissue.

For assay [1], the target named is T2, dopamine D2 receptor (Rattus norvegicus, UniProt P61169). Description: Ratio Ant/Ag (intrinsic activity from low-affinity/high-affinity agonist state). The assay is classed as binding. As to conditions: Spiper. IC50 / Quin. IC50. The text has this: Efforts to induce antipsychotic activity with dopamine autoreceptor agonists have been successful (Corsini et al. Adv. Biochem. […] […] et at. […] A method for determining intrinsic activity at the dopamine D2 receptor was recently reported [Lahti et al., Mol. Pharm. […] Intrinsic activity is predicted using the ratio of the "low-affinity agonist" (LowAg) state of the receptor and the "high-affinity agonist" ([…]) state of the receptor, […]. These ratios correlate with the agonist, partial agonist, and antagonist activities of a given compound, which activities characterize a compounds ability to elicit an antipsychotic effect.

Assay [2] has as its target T2, dopamine D2 receptor. As to the kind of experiment: 3H-spiroperidol (Spiper.) binding, affinity for the dopamine D-2 receptor, homogenized limbic brain tissue. On the set-up: homogenized limbic brain tissue; from tissue; host or cells: limbic brain tissue, homogenized.
The subject of a further assay is α1. As to the kind of experiment: α1 (no method described). The assay is classed as binding.

T2 sequence (P61169 whole entry): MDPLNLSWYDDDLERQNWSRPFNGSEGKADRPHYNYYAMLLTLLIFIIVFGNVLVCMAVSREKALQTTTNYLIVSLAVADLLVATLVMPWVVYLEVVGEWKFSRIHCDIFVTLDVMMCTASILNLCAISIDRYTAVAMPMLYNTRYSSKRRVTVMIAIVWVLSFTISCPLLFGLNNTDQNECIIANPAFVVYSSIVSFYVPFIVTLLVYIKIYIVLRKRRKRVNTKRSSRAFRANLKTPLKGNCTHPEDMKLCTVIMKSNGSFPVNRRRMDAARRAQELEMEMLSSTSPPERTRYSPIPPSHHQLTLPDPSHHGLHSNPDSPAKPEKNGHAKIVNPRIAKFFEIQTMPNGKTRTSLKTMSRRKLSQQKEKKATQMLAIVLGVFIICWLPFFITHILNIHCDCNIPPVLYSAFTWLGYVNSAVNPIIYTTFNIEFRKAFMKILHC
T1 sequence (P61169 whole entry): as above

In general, IC50 refers to the concentration that inhibits the measured activity by half. The low end stands for greater potency in that assay, the high end for weaker potency in that assay. Take `CCCCNCC1CCc2ccc(OC)cc2O1` (centres unmarked): the IC50 on dopamine autoreceptor was determined as 733 nM; on dopamine D2 receptor [2], 23600 nM. For the same compound, the “Ratio Ant/Ag” value on dopamine D2 receptor [1] turned out to be 32.

In turn, `CCCNCC1CCc2ccc(O)cc2O1` (centres unmarked) returned a half-inhibitory concentration (IC50) in the assay on α1 of 1160 nM.

With `CCCCCCNCC1CCc2ccc(O)cc2O1` (centres unmarked), half-maximal inhibition with α1 (IC50) was put at 221 nM.

Consider `COc1ccc2c(c1)OC(CNCCC(C)C)CC2` (centres unmarked), for which the figures for the concentration for half-maximal inhibition (IC50) at dopamine autoreceptor and on dopamine D2 receptor [2] were 831 nM and 26500 nM, respectively. At dopamine D2 receptor [1], the “Ratio Ant/Ag” value is recorded as 32.

As to `CCCN(CCC)CC1CCc2ccc(O)cc2O1` (centres unmarked), the IC50 on dopamine autoreceptor worked out at 102 nM; at dopamine D2 receptor [2], 8960 nM. Moreover, the “Ratio Ant/Ag” value on dopamine D2 receptor [1] is given as 88.
